Assay [1] concerns the target T1, Phosphatidylinositol 5-phosphate 4-kinase type-2 beta (Homo sapiens) (UniProt P78356).
T1 sequence (whole entry): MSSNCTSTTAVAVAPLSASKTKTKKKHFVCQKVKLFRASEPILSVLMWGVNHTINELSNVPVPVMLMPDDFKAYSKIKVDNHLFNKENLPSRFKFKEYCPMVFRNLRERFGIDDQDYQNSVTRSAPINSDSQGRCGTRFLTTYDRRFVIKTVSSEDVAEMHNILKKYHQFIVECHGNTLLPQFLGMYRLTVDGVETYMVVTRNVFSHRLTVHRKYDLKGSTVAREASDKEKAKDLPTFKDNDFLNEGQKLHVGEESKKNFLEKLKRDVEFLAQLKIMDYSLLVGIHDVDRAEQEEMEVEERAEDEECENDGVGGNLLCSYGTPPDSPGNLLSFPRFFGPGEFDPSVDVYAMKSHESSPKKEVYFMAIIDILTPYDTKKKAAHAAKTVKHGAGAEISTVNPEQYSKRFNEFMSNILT
Put plainly: Selectivity interaction (Ambit KINOMEscan and KiNATiv profiling in Jurkat cells) EUB0000090b PIP4K2B. In kind it is cell-based. The following applies: at 1 µM.

For assay [2], the target named is Hepatocyte growth factor receptor (Homo sapiens, UniProt P08581). The following applies: at 10 µM.
In assay [3] the target is Cyclin-dependent kinase 2 (Homo sapiens, UniProt P24941). Kind of assay: Selectivity interaction (KinomeScan (DiscoverX)) EUB0000092b CDK2. The following applies: at 10 µM.
For assay [4], the target named is T2, Serine/threonine-protein kinase STK11 (Homo sapiens) (UniProt Q15831).
T2 sequence (whole entry): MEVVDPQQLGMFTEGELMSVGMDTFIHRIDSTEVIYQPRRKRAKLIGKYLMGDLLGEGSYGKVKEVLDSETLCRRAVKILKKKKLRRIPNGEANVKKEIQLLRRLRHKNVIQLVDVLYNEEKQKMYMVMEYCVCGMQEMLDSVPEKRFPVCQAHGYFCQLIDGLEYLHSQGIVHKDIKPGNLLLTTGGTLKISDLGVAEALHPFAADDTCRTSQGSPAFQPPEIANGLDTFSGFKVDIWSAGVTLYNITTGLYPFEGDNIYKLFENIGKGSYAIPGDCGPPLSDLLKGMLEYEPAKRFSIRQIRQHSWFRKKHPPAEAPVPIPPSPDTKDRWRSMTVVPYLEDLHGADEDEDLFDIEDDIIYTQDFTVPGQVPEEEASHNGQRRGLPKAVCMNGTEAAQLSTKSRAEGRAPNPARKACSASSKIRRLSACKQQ
Kind of assay: Selectivity interaction (KinomeScan (DiscoverX)) EUB0000092b STK11. The note with it: at 10 µM.

Assay [5] addresses Ribosomal protein S6 kinase alpha-6 (Homo sapiens, UniProt Q9UK32). Put plainly: Selectivity interaction (KinomeScan (DiscoverX)) EUB0000695a RPS6KA6. The following applies: at 100 nM.
Assay [6] concerns the target High affinity nerve growth factor receptor (Homo sapiens, UniProt P04629). Put plainly: Selectivity interaction (KinomeScan (DiscoverX)) EUB0000045b NTRK1.
The target of assay [7] is T3, Protein arginine N-methyltransferase 9 (Homo sapiens) (UniProt Q6P2P2).
T3 sequence (whole entry): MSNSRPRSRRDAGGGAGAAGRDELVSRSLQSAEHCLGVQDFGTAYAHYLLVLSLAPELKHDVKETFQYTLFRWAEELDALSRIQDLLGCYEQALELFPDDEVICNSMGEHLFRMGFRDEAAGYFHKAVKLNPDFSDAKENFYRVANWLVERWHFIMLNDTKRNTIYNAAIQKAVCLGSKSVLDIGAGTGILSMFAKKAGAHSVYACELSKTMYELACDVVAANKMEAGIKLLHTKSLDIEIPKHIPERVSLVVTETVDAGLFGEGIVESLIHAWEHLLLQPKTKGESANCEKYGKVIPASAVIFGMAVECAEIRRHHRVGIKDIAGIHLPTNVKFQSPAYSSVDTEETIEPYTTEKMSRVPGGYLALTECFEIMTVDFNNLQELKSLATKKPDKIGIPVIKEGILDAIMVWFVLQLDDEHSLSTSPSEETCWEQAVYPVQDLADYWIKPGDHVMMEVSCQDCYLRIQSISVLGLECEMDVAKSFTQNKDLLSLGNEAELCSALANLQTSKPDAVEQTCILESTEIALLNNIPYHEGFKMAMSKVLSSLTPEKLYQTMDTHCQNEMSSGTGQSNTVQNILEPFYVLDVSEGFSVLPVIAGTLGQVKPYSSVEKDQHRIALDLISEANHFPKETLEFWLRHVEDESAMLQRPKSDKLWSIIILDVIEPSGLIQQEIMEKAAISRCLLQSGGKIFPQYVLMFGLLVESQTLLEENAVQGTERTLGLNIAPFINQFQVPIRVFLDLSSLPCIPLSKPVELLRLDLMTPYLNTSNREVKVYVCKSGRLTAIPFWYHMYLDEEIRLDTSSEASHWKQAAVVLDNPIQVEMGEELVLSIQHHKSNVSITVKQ
Kind of assay: Selectivity interaction (Methyltransferase screen (radiometric assays, panel of 8 PRMTs, 21 protein lysine methyltransferases, 3 DNA methyltransferases, and one RNA methyltransferase)) EUB0000272b PRMT9.

Assay [8] deals with Ribosomal protein S6 kinase beta-2 (Homo sapiens) (UniProt Q9UBS0). Kind of assay: Selectivity interaction (ActivX KiNativ screen (kinase selectivity in THP-1 cell lysates)) EUB0000639a RPS6KB2. The following applies: lysate. The format is subcellular.
Assay [9] has as its target Dual specificity protein kinase CLK2 (Homo sapiens, UniProt P49760). Kind of assay: Selectivity interaction (KinomeScan (DiscoverX)) EUB0000595a CLK2. The note with it: at 10 µM.
For assay [10], the target named is Aurora kinase B (Homo sapiens, UniProt Q96GD4). Kind of assay: Selectivity interaction (Kinase panel (Invitrogen, enzymatic assay)) EUB0000162b AURKB.

Molecules are shown by their SMILES.

Ribosomal protein S6 kinase beta-2 (Homo sapiens), sequence (Q9UBS0 whole entry): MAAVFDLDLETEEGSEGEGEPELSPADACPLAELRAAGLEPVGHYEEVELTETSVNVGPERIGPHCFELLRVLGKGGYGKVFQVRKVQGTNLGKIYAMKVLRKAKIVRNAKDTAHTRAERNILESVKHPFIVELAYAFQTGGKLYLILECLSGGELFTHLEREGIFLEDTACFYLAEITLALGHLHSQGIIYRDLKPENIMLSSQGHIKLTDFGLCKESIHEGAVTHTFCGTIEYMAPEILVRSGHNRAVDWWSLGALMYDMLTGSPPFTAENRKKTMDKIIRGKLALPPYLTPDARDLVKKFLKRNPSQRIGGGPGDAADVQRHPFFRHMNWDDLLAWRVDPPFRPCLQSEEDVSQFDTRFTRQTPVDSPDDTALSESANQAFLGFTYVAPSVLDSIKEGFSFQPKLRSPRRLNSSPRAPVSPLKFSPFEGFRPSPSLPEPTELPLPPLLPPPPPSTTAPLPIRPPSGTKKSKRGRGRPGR
High affinity nerve growth factor receptor, sequence (P04629 33-796 limits assumed): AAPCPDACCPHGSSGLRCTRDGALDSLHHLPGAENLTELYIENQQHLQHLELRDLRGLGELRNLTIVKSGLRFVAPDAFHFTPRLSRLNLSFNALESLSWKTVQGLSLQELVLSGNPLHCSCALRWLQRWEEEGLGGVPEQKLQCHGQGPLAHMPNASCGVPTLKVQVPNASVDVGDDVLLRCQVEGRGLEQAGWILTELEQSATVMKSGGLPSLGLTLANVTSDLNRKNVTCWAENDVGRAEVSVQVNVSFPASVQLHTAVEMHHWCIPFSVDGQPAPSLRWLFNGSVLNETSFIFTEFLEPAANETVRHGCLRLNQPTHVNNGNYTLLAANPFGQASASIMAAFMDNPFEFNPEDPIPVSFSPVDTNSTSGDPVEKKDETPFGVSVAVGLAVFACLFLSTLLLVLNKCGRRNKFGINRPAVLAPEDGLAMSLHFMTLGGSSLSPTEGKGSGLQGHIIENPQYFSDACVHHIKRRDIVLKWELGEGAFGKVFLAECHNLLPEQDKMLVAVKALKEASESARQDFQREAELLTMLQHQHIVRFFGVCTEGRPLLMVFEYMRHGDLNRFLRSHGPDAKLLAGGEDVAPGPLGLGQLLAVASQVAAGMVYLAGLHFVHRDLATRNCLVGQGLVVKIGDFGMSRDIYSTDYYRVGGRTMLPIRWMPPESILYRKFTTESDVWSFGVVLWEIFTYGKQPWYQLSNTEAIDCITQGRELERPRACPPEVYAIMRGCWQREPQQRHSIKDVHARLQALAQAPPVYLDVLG
Aurora kinase B, sequence (Q96GD4 whole entry): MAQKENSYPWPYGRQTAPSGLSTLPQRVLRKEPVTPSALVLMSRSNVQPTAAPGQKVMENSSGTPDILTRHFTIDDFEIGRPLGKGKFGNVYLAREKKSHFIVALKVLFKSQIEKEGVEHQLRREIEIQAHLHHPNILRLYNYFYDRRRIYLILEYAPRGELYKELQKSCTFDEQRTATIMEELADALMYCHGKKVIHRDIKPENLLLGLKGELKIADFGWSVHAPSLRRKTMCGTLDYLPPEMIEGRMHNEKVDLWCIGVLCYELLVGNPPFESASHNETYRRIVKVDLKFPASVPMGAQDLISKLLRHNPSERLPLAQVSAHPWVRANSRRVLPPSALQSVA
Ribosomal protein S6 kinase alpha-6, sequence (Q9UK32 whole entry): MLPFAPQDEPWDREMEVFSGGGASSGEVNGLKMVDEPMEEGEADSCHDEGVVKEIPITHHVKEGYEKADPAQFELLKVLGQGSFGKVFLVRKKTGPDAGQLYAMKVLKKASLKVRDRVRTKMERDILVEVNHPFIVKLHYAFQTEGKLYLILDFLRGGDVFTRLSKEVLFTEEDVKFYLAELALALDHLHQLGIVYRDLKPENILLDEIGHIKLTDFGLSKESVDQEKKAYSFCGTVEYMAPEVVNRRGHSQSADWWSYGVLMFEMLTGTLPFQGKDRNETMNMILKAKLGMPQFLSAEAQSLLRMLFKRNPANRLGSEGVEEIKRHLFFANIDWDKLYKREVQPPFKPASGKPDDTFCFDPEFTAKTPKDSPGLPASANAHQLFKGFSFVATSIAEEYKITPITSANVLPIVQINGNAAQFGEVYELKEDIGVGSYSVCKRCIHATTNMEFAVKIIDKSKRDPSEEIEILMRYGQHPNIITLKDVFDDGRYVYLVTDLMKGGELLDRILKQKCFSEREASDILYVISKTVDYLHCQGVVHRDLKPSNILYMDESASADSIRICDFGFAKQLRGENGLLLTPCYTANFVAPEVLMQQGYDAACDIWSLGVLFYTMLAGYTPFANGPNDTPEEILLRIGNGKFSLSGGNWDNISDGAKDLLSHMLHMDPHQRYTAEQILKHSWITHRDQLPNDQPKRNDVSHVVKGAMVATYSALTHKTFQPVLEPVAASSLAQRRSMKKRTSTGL
Dual specificity protein kinase CLK2, sequence (P49760 whole entry, looked up): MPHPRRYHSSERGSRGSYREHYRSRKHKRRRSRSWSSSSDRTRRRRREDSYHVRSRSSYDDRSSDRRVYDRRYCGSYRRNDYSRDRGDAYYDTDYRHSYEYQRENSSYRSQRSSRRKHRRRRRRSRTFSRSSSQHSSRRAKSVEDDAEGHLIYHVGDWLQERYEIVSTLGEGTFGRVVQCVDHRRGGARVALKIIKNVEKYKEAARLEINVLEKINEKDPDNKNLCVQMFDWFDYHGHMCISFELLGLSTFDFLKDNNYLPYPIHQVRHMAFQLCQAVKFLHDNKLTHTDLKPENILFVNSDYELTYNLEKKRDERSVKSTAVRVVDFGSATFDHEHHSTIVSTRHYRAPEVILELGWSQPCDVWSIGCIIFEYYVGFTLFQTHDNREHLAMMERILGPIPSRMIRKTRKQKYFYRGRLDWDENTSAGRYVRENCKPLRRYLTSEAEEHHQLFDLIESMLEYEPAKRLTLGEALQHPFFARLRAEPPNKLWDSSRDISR
Hepatocyte growth factor receptor, sequence (P08581 whole entry): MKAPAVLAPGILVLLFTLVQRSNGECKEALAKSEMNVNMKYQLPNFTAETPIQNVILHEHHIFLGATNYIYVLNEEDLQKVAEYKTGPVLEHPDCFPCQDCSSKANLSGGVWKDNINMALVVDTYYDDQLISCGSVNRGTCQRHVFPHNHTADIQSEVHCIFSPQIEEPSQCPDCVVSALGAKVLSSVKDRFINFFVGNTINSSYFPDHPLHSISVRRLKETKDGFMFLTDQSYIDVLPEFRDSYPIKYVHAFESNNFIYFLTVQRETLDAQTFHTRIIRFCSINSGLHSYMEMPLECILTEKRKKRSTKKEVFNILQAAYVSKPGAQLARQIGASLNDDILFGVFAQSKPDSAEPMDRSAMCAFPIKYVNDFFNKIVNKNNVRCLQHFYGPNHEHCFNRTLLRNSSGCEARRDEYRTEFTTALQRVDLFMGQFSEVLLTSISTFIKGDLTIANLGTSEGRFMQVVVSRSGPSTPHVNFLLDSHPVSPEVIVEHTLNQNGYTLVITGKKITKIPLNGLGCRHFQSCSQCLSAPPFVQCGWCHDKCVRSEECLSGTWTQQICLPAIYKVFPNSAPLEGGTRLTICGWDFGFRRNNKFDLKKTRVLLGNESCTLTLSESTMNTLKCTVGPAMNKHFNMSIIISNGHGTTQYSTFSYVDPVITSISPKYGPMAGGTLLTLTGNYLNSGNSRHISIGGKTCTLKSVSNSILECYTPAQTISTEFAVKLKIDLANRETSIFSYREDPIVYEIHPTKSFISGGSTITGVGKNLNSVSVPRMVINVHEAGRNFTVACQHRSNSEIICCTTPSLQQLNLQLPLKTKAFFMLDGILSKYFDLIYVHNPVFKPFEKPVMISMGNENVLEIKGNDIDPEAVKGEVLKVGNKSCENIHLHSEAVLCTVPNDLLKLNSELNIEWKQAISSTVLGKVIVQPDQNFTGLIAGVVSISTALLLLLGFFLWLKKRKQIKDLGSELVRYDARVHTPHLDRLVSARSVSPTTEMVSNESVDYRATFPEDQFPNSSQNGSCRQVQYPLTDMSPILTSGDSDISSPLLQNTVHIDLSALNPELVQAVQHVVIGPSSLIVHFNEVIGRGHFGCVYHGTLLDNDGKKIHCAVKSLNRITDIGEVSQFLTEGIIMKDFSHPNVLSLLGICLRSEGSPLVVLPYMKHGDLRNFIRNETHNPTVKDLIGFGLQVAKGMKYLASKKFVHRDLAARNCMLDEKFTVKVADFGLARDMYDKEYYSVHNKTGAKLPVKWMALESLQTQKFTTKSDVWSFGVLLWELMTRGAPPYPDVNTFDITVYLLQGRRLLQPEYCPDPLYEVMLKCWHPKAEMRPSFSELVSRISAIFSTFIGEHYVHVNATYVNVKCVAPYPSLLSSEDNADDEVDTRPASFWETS

As for `CN(C)C/C=C/C(=O)Nc1ccc(C(=O)N2CCCC(Nc3ncc(Cl)c(-c4c[nH]c5ccccc45)n3)C2)cc1` (stereo unspecified), the % of control in assay [1] was 83%.
In assay [2], `CCN(CC)CCCCNc1ncc2cc(-c3cc(OC)cc(OC)c3)c(NC(=O)NC(C)(C)C)nc2n1` returned a % of control of 100%.
Consider `CCC(=O)N1CCN(c2ccc(-n3c(=O)ccc4cnc5ccc(-c6cnc7ccccc7c6)cc5c43)cc2C(F)(F)F)CC1`, for which the % of control in [3] was found to be 6.2%; in assay [4] it was 100%.
In assay [5], `Cc1cc(F)c(C(=O)Nc2cccc(-c3nncn3C(C)C)n2)cc1-n1cnc(C2CC2)c1` registered a % of control of 84%.
On to `C=CC(=O)Nc1cc(-n2c(=O)ccc3cnc4ccc(-c5ccc(NS(C)(=O)=O)cc5)cc4c32)ccc1C`, for which the % of control in assay [6] (at 1 µM) and in assay [6] (at 10 µM) was 100% in each case.
As for `Cc1cc(C)cc([C@H]2c3cc(C)ccc3NC(=O)CN2C(=O)c2ccc(Br)s2)c1`, the % of activity in [7] (at 1 µM) and in assay [7] (at 10 µM) was 105% in each case.
As for `CC[C@@H]1[C@H](F)C(=O)N[C@@H]1COc1nccc2cc(C(N)=O)c(OC)cc12` [ZIMLOVISERTIB], the % of inhibition in assay [8] (at 0.01 µM) was -0.4%; in assay [8] (at 0.04 µM) it was 9.9%; in assay [8] (at 0.2 µM) it was -6.2%; in assay [8] (at 1 µM), -5.5%; in assay [8] (at 5 µM) it was 3.9%.
`COCC(=O)NC/C=C/c1ccc2ncnc(Nc3ccc(Oc4ccc(C)nc4)c(C)c3)c2c1` [CP-724714]: the % of control in assay [9] amounted to 75%.
With `CN(C)C(=O)Cn1cc(-c2ccc(-c3cncc4ccccc34)cc2)cn1`, the IC50 (usually the point on the concentration scale where inhibition reaches its midpoint) in [10] came out at 809 nM.
